Results: patent US6911469B2, “Sulfonamide compounds and pharmaceutical use thereof” (Fujisawa Pharmaceutical Co., Ltd., priority 1997, dated 2005)

Structure (SMILES) | melting point
CCCCS(=O)(=O)NC(=O)c1ccc2c(c1)CN(Cc1ccc(Cl)cc1Cl)C(C)=N2.Cl | 258 °C (dec.)
CCCCCS(=O)(=O)NC(=O)c1ccc2c(c1)N(Cc1ccc(Cl)cc1Cl)C(C)=NC2.Cl | 184 to 186 °C
CCCCCS(=O)(=O)NC(=O)c1ccc2sc(C)c(Cc3ccc(Cl)c(Cl)c3)c2c1 [Example 1, 3-(3,4-dichlorobenzyl)-2-methyl-5-(n-pentanesulfonyl-carbamoyl)benzo[b]thiophene] | 159 to 160 °C
CCCCCS(=O)(=O)NC(=O)c1ccc2sc(C)c(Cc3cccc(Cl)c3Cl)c2c1 [Example 2, 3-(2,3-dichlorobenzyl)-2-methyl-5-(n-pentanesulfonylcarbamoyl)benzo[b]thiophene] | 196 to 197 °C
CCCCCS(=O)(=O)NC(=O)c1ccc2sc(C)c(Cc3cc(Cl)ccc3Cl)c2c1 [Example 3, 3-(2,5-dichlorobenzyl)-2-methyl-5-(n-pentanesulfonylcarbamoyl)benzo[b]thiophene] | 147 to 148 °C
CCCCCS(=O)(=O)NC(=O)c1ccc2nc(C)n(Cc3ccc(Cl)cc3Cl)c2n1 [Example 8-1, 3-(2,4-dichlorobenzyl)-2-methyl-5-(n-pentanesulfonylcarbamoyl)-3H-imidazo[4,5-b]pyridine] | 174 to 175 °C
CCCCS(=O)(=O)NC(=O)c1ccc2nc(C)n(Cc3ccc(Cl)cc3Cl)c2n1 [Example 8-2, 5-(n-butanesulfonylcarbamoyl)-3-(2,4-dichlorobenzyl)-2-methyl-3H-imidazo[4,5-b]pyridine] | 153 to 154 °C
Cc1nc2ccc(C(=O)NS(=O)(=O)c3ccccc3)nc2n1Cc1ccc(Cl)cc1Cl [Example 8-3, 5-benzenesulfonylcarbamoyl-3-(2,4-dichlorobenzyl)-2-methyl-3H-imidazo[4,5-b]pyridine] | 193 to 194 °C
CCCCCS(=O)(=O)NC(=O)c1ccc2nc(C)n(Cc3ccc(-c4ccccc4)cc3Cl)c2n1 [Example 9, 3-(2-chloro-4-phenylbenzyl)-2-methyl-5-(n-pentanesulfonylcarbamoyl)-3H-imidazo[4,5-b]pyridine] | 155 to 156 °C
CCCCCS(=O)(=O)NC(=O)c1ccc2nc(C)n(Cc3ccc4ccccc4c3Br)c2n1 [Example 10, 3-(1-bromo-2-naphthyl)methyl-2-methyl-5-(n-pentanesulfonylcarbamoyl)-3H-imidazo[4,5-b]pyridine] | 200 to 201 °C
CCCCCS(=O)(=O)NC(=O)c1ccc2nc(C)n(Cc3ccc(-c4ccccc4)cc3)c2n1 [Example 11, 2-methyl-5-(n-pentanesulfonyl-carbamoyl)-3-(4-phenylbenzyl)-3H-imidazo[4,5-b]pyridine] | 170 to 171 °C
CCCCCS(=O)(=O)NC(=O)c1ccc2nc(C)n(Cc3ccc(Br)cc3Cl)c2n1 [Example 12-1, 3-(4-bromo-2-chlorobenzyl)-2-methyl-5-(n-pentanesulfonylcarbamoyl)-3H-imidazo[4,5-b]pyridine] | 183 to 184 °C
CCCCS(=O)(=O)NC(=O)c1ccc2nc(C)n(Cc3ccc(Br)cc3Cl)c2n1 [Example 12-2, 3-(4-bromo-2-chlorobenzyl)-5-(n-butanesulfonylcarbamoyl)-2-methyl-3H-imidazo[4,5-b]pyridine] | 165 to 166 °C
Cc1nc2ccc(C(=O)NS(=O)(=O)c3ccccc3)nc2n1Cc1ccc(Br)cc1Cl [Example 12-3, 5-(benzenesulfonylcarbamoyl)-3-(4-bromo-2-chlorobenzyl)-2-methyl-3H-imidazo[4,5-b]pyridine] | 193 to 194 °C
CCCCCS(=O)(=O)NC(=O)c1ccc2nc(C)n(Cc3ccc(Cl)cc3Br)c2n1 [Example 13-1, 3-(2-bromo-4-chlorobenzyl)-2-methyl-5-(n-pentanesulfonylcarbamoyl)-3H-imidazo[4,5-b]pyridine] | 167 to 168 °C
Cc1nc2ccc(C(=O)NS(=O)(=O)c3ccccc3)nc2n1Cc1ccc(Cl)cc1Br [Example 13-2, 5-(benzenesulfonylcarbamoyl)-3-(2-bromo-4-chlorobenzyl)-2-methyl-3H-imidazo[4,5-b]pyridine] | 189 to 190 °C
CCCCS(=O)(=O)NC(=O)c1ccc2nc(C)n(Cc3ccc(Cl)cc3Br)c2n1 [Example 13-3, 3-(2-bromo-4-chlorobenzyl)-5-(n-butanesulfonylcarbamoyl)-2-methyl-3H-imidazo[4,5-b]pyridine] | 145 to 146 °C
CCCCCS(=O)(=O)NC(=O)c1cc(C)c2nc(CC)n(Cc3ccc(Cl)cc3Cl)c2n1 [Example 15, 3-(2,4-dichlorobenzyl)-2-ethyl-7-methyl-5-(n-pentanesulfonylcarbamoyl)-3H-imidazo[4,5-b]pyridine] | 178 to 180 °C
CCCCCS(=O)(=O)NC(=O)c1cc(C)c2nc(CC)n(Cc3ccc(-c4ccccc4)cc3)c2n1 [Example 16, 2-ethyl-7-methyl-5-(n-pentanesulfonylcarbamoyl)-3-(4-phenylbenzyl)-3H-imidazo[4,5-b]pyridine] | 210 to 211 °C
CCCCCS(=O)(=O)NC(=O)c1cnc2nc(C)n(Cc3ccc(Cl)cc3Cl)c2c1 [Example 25, 1-(2,4-dichlorobenzyl)-2-methyl-6-(n-pentanesulfonylcarbamoyl)-1H-imidazo[4,5-b]pyridine] | 103 to 106 °C
CCCCCS(=O)(=O)NC(=O)c1ccc2nc(C)n(Cc3ccc(Cl)cc3OC)c2n1 [Example 27, 3-(4-chloro-2-methoxybenzyl)-2-methyl-5-(n-pentanesulfonylcarbamoyl)-3H-imidazo[4,5-b]pyridine] | 168 to 170 °C
CCCCCS(=O)(=O)NC(=O)c1ccc2sc(C)c(Cc3ccc(Cl)cc3Cl)c2c1 [Example 37, 3-(2,4-dichlorobenzyl)-2-methyl-5-(1-n-pentanesulfonylcarbamoyl)benzo[b]thiophene] | 158.5 to 159.3 °C
CCCCS(=O)(=O)NC(=O)c1ccc2c(c1)n(Cc1ccc(Cl)cc1Cl)c(=O)n2C [Example 39, 6-(1-n-butanesulfonylcarbamoyl)-1-(2,4-dichlorobenzyl)-3-methyl-2-benzimidazolone] | 358 to 360 °C
CCCCS(=O)(=O)NC(=O)c1ccc2nnn(Cc3ccc(Cl)cc3Cl)c2c1 [Example 40, 6-(1-n-butanesulfonyl-carbamoyl)-1-(2,4-dichlorobenzyl)benzotriazole] | 158 to 160 °C
CCCCS(=O)(=O)NC(=O)c1ccc2c(=O)n(CC)c(=O)n(Cc3ccc(Cl)cc3Cl)c2c1 [Example 42, 7-(1-n-butanesulfonyl-carbamoyl)-1-(2,4-dichlorobenzyl)-3-ethyl-2,4(1H,3H)-quinazolinedione] | 212 to 214 °C
CCCCS(=O)(=O)NC(=O)c1ccc2c(=O)n(Cc3ccc(Cl)cc3Cl)c(=O)n(C)c2c1 [Example 43, 7-(1-n-butanesulfonyl-carbamoyl)-3-(2,4-dichlorobenzyl)-1-methyl-2,4(1H,3H)-quinazolinedione] | 212 to 214 °C
CCCCS(=O)(=O)NC(=O)c1ccc2c(=O)n(Cc3ccc(Cl)cc3Cl)cnc2c1 [Example 44, 7-(1-n-butanesulfonyl-carbamoyl)-3-(2,4-dichlorobenzyl)-4(3H)-quinazolinone] | 245 to 247 °C

Second part, the molecule after the results:

melting point | Structure (SMILES)
147 to 148 °C | CCCCCS(=O)(=O)NC(=O)c1ccc2[nH]c(C)c(Cc3ccc(Cl)cc3Cl)c2n1 [Example 26-1, 3-(2,4-dichlorobenzyl)-2-methyl-5-(n-pentanesulfonylcarbamoyl)pyrrolo[3,2-b]pyridine]
> 250 °C | Cc1[nH]c2ccc(C(=O)NS(=O)(=O)c3ccccc3)nc2c1Cc1ccc(Cl)cc1Cl [Example 26-2, 3-(2,4-dichlorobenzyl)-2-methyl-5-(benzenesulfonylcarbamoyl)pyrrolo[3,2-b]pyridine]
155 to 157 °C | CCCCCS(=O)(=O)NC(=O)c1ccc2nc(C)n(Cc3ccc(Cl)cc3C)c2n1 [Example 28-1, 3-(4-chloro-2-methylbenzyl)-2-methyl-5-(n-pentanesulfonylcarbamoyl)-3H-imidazo[4,5-b]pyridine]
235 to 237 °C | Cc1cc(Cl)ccc1Cn1c(C)nc2ccc(C(=O)NS(=O)(=O)c3ccccc3)nc21 [Example 28-2, 5-benzenesulfonylcarbamoyl-3-(4-chloro-2-methylbenzyl)-2-methyl-3H-imidazo[4,5-b]pyridine]
204 to 214 °C | Cc1nc2ccc(C(=O)NS(=O)(=O)c3ccccc3)nc2n1Cc1ccc(-c2ccccc2)cc1Cl [Example 29-1, 5-benzenesulfonylcarbamoyl-3-(2-chloro-4-phenylbenzyl)-2-methyl-3H-imidazo[4,5-b]pyridine]
199 to 200 °C | CCCCS(=O)(=O)NC(=O)c1ccc2nc(C)n(Cc3ccc(-c4ccccc4)cc3Cl)c2n1 [Example 29-2, 5-(n-butanesulfonylcarbamoyl)-3-(2-chloro-4-phenylbenzyl)-2-methyl-3H-imidazo[4,5-b]pyridine]
208.5 to 209.5 °C | Cc1oc2ccc(C(=O)NS(=O)(=O)c3ccccc3)cc2c1Cc1ccc(Cl)cc1Cl [Example 30-2, 5-(benzenesulfonylcarbamoyl)-3-(2,4-dichlorobenzyl)-2-methylbenzo[b]furan]
164 to 165.5 °C | CCCCCS(=O)(=O)NC(=O)c1cc(C)cc2c(C)c(Cc3ccc(Cl)cc3Cl)oc12 [Example 31-1, 2-(2,4-dichlorobenzyl)-3,5-dimethyl-7-(1-n-pentanesulfonylcarbamoyl)benzo[b]furan]
214 to 215 °C | Cc1cc(C(=O)NS(=O)(=O)c2ccccc2)c2oc(Cc3ccc(Cl)cc3Cl)c(C)c2c1 [Example 31-2, 7-(benzenesulfonylcarbamoyl)-2-(2,4-dichlorobenzyl)-3,5-dimethylbenzo[b]furan]
176 to 178 °C | CCCCCS(=O)(=O)NC(=O)c1cccc2c(CC)c(Cc3ccc(Cl)cc3Cl)sc12 [Example 38-1, 2-(2,4-dichlorobenzyl)-3-ethyl-7-(1-n-pentanesulfonylcarbamoyl)benzo[b]thiophene]
181 to 183 °C | CCc1c(Cc2ccc(Cl)cc2Cl)sc2c(C(=O)NS(=O)(=O)c3ccccc3)cccc12 [Example 38-2, 7-(benzenesulfonylcarbamoyl)-2-(2,4-dichlorobenzyl)-3-ethylbenzo[b]thiophene]
